The target of data set [1] is T1, human IL-23R (Homo sapiens, UniProt Q5VWK5).
T1 construct: UniProtKB—Q5VWK5, amino acids 22-629; secretion signal of the plasmid (Promega N1371); expressed in transfected cells
T1 sequence (Q5VWK5 22-629): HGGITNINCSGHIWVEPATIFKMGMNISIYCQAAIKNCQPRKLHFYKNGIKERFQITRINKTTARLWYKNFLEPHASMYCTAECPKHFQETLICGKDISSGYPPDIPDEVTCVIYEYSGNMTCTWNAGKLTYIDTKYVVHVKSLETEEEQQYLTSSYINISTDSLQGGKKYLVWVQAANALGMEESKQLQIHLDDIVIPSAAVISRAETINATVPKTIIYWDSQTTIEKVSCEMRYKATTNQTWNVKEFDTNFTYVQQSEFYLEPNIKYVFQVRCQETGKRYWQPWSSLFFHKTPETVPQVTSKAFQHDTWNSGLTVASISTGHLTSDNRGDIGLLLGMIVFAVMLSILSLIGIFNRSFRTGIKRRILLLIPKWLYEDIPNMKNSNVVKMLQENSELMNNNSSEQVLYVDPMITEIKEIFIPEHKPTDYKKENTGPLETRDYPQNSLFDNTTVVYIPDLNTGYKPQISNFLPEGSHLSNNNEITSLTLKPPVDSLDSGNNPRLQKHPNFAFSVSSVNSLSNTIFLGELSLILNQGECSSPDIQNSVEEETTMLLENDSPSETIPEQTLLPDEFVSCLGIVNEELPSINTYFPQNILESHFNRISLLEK
Nature of the data set: Binding assay (NanoBRET displacement of fluorophore-labelled reference compound) for estimating binding affinity to human IL-23R. Conditions: Table 3-1; read-out: Ki hIL-23R.

Data set [2] can be described thus: Peptide stability in simulated intestinal fluid (SIF). The class given is in vitro ADME. The note with it: Table 3-2, porcine pancreatin, pH 6.8, 37° C., 10 μM; for remaining at 1 h, 10 μM / remaining at 4 h, 10 μM: pig, simulated intestinal fluid (SIF) with porcine pancreatin; for remaining at 1 h, 10 μM: read-out: SIF (% remaining 1 h); for remaining at 4 h, 10 μM: read-out: SIF (% remaining 4 h). As for the experimental part:
Determination of Peptide Stability in Simulated Gastric Fluid (SGF) and Simulated Intestinal Fluid (SIF)
SGF was prepared by dissolving sodium chloride (0.2 g) in 50 mL of water. A volume of 0.7 mL of 10 M HCl was added to adjust the pH of the solution to 1.2 and the volume made up to 100 mL with water. […] SIF was prepared by dissolving monobasic potassium phosphate (0.68 g) in 50 mL of water and adjusting the pH to 6.8 with 1 M NaOH. The volume was subsequently made up to 100 mL with water. 200 mg porcine pancreatin (P1625, Sigma Aldrich) was gently dissolved into 20 mL preheated (37° C.) solution (10 g/L) immediately prior to the incubation.
The incubation was performed at 37° C. with gentle shaking. […] After the last timepoint, the sampling plate was mixed for 10 min on a shaking table and centrifuged 10 min at 2200 g. 70 μL resulting supernatant was diluted with 150 μL water, mixed and centrifugated before analysis by liquid chromatography high resolution mass spectrometry. […] Percent remaining at each timepoint was calculated relative to timepoint zero based on absolute peak areas.

pKi: −log10 of the molar value. *1 amine or outer side, *2 acyl side, *3 side chain or, on linkers, in order; H or OH if unused. Where a SMILES comes first, the peptide text is derived from it. Bridges are numbered along the chain shown (N, C = ends). [ ]: non-standard residue; d: D form. NHCH2(1,3-C6H4)CH2CO = O=C(Cc1cccc(CN[*:1])c1)[*:2]; dTrp(6-F) = N[C@H](Cc1c[nH]c2cc(F)ccc12)C(=O)O; αMeAla(3-pyridyl) = C[C@](N)(Cc1cccnc1)C(=O)O; Trp(1-Me) = Cn1cc(C[C@H](N)C(=O)O)c2ccccc21; Phe(3,4-Me2) = Cc1ccc(C[C@H](N)C(=O)O)cc1C; Phe(4-Me) = Cc1ccc(C[C@H](N)C(=O)O)cc1; dPhe(4-F) = N[C@H](Cc1ccc(F)cc1)C(=O)O; 2Nal = N[C@@H](Cc1ccc2ccccc2c1)C(=O)O; AEF = NCCOc1ccc(C[C@H](N)C(=O)O)cc1; NMeR = CN[C@@H](CCCNC(=N)N)C(=O)O; X1 = O=C(Cc1ccc(CN[*:1])cc1)[*:2]; αMeL = CC(C)C[C@](C)(N)C(=O)O; CH2COCH2 = O=C(C[*:1])C[*:2]; Phg = N[C@H](C(=O)O)c1ccccc1; αMeV = CC(C)[C@](C)(N)C(=O)O; 3Amb = NCc1cccc(C(=O)O)c1; Dab = NCC[C@H](N)C(=O)O

As usually defined, the pKi is the negative decadic logarithm of the Ki, by convention in mol/L.

Regarding `CC(C)C[C@]1(C)NC(=O)[C@H](Cc2ccc3ccccc3c2)NC(=O)[C@H](Cc2ccc(OCCN)cc2)NC(=O)[C@@H]2CCC(=O)NCC[C@H](NC(=O)[C@H](CO)NC(=O)Cc3ccc(cc3)CNC(=O)CC[C@@H](C(=O)N[C@@H](CCN)C(=O)N[C@@H](Cc3cccnc3)C(N)=O)NC1=O)C(=O)N[C@@H](Cc1c[nH]c3ccccc13)C(=O)N[C@@H](CCC(N)=O)C(=O)N2` (relative stereo) [Compound 123, [4-Aminomethyl-phenylacetyl](1c)*S[Dab](2c)WQE(2c)[Y(2-aminoethoxy)][2-Nal][2-Me-Leu]E(1c)[Dab][3-(3-Pyridyl)-Ala]-[NH2]], the pKi in data set [1] was 11.11. Further, in data set [2], the amount remaining at 1 h, 10 μM was 46%. The amount remaining at 4 h, 10 μM in data set [2] (4 h) was 4%. For `CC[C@H](C)[C@@H]1NC(=O)Cc2ccc(cc2)CNC(=O)CC[C@@H](C(=O)N[C@@H](CCN)C(=O)N[C@@](C)(Cc2cccnc2)C(N)=O)NC(=O)[C@](C)(C(C)C)NC(=O)[C@H](Cc2ccc(C)c(C)c2)NC(=O)[C@H](c2ccccc2)NC(=O)[C@@H]2CCNC(=O)CC[C@H](NC1=O)C(=O)N[C@@H](Cc1c[nH]c3ccccc13)C(=O)N[C@@H](CCC(N)=O)C(=O)N2` [Compound 174, [4-Aminomethyl-phenylacetyl](1c)*IE(2c)WQ[Dab](2c)[Phg][F(3,4-Me)][2-Me-Val]E(1c)[Dab][2-Me-3-(3-Pyridyl)-Ala]-[NH2]] ([X1]IEWQ[Dab][Phg][Phe(3,4-Me2)][αMeV]E[Dab][αMeAla(3-pyridyl)]-NH2; lactam 3-6, N-10), the fraction remaining at 4 h, 10 μM in data set [2] (4 h) is 86%. On to `CSCC[C@H](NC(=O)[C@@H]1CSCC(=O)CSC[C@H](NC(=O)[C@@H](N)CCC(=O)O)C(=O)N[C@@H](Cc2c[nH]c3ccccc23)C(=O)N[C@@H](CC(C)C)C(=O)N[C@H]2CSCC(=O)CSC[C@H](NC(=O)[C@H](CC(N)=O)NC(=O)[C@H](CCCNC(=N)N)NC(=O)[C@H](Cc3ccc(O)cc3)NC(=O)[C@H](Cc3ccc(O)cc3)NC2=O)C(=O)N[C@@H](CC(N)=O)C(=O)N1)C(N)=O` (single isomer, unassigned) [I4 (isomer 3), H-EC(4a)WLC(5a)YYRNC(5a)NC(4a)M-[NH2], reference compound], for which the “SIF (% remaining 4 h)” value in data set [2] (4 h) is on record as 0%.

Consider `CC[C@H](C)[C@@H]1NC(=O)Cc2ccc(cc2)CNC(=O)CC[C@@H](C(=O)N[C@@H](CCN)C(=O)N[C@@](C)(Cc2cccnc2)C(N)=O)NC(=O)[C@](C)(C(C)C)NC(=O)[C@H](Cc2ccc(C)c(C)c2)NC(=O)[C@H](Cc2ccc(OC)cc2)NC(=O)[C@@H]2CCNC(=O)CC[C@H](NC1=O)C(=O)N[C@@H](Cc1c[nH]c3ccccc13)C(=O)N[C@@H](CCC(N)=O)C(=O)N2` [Compound 166, [4-Aminomethyl-phenylacetyl](1c)*IE(2c)WQ[Dab](2c)[Y(Me)][F(3,4-Me)][2-Me-Val]E(1c)[Dab][2-Me-3-(3-Pyridyl)-Ala]-[NH2]] ([X1]IEWQ[Dab]Y(Me)[Phe(3,4-Me2)][αMeV]E[Dab][αMeAla(3-pyridyl)]-NH2; lactam 3-6, N-10), for which the amount remaining at 4 h, 10 μM in data set [2] (4 h) is 86%. With `CC(C)C[C@]1(C)NC(=O)[C@H](Cc2ccc3ccccc3c2)NC(=O)[C@H](Cc2c[nH]c3ccccc23)NC(=O)[C@@H]2CSCC(=O)CSC[C@H](NC(=O)[C@H](CO)NC(=O)c3cccc(c3)CNC(=O)CC[C@@H](C(=O)N[C@@H](CCCNC(=N)N)C(N)=O)NC1=O)C(=O)N[C@@H](Cc1c[nH]c3ccccc13)C(=O)N[C@@H](CCC(N)=O)C(=O)N2` [Compound 40, [(3-Aminomethyl)benzoyl](1c)*SC(2a)WQC(2a)W[2-Nal][2-Me-Leu]E(1c)R-[NH2]] ([3Amb]SCWQCW[2Nal][αMeL]ER-NH2; linker 3-6 via CH2COCH2; lactam N-10), the amount remaining at 1 h, 10 μM in data set [2] was 70%. As for `CC(C)C[C@]1(C)NC(=O)[C@H](Cc2ccc3ccccc3c2)NC(=O)[C@H](Cc2ccc(OCCN)cc2)NC(=O)[C@@H]2CSCC(=O)CSC[C@H](NC(=O)[C@H](CO)NC(=O)Cc3cccc(c3)CNC(=O)CC[C@@H](C(=O)N[C@H](CCCNC(=N)N)C(N)=O)NC1=O)C(=O)N[C@@H](Cc1c[nH]c3ccccc13)C(=O)N[C@@H](CCC(N)=O)C(=O)N2` [Compound 92, [3-Aminomethyl-phenylacetyl](1c)*SC(2a)WQC(2a)[Y(2-aminoethoxy)][2-Nal][2-Me-Leu]E(1c)[{d}R]-[NH2]] ([NHCH2(1,3-C6H4)CH2CO]SCWQC[AEF][2Nal][αMeL]E[dR]-NH2; linker 3-6 via CH2COCH2; lactam N-10), the share remaining at 4 h, 10 μM in data set [2] (4 h) was 102%.

As to `CC[C@H](C)[C@@H]1NC(=O)Cc2ccc(cc2)CNC(=O)CC[C@@H](C(=O)N[C@@H](CCN)C(=O)N[C@@](C)(Cc2cccnc2)C(N)=O)NC(=O)[C@](C)(C(C)C)NC(=O)[C@H](Cc2ccc(C)c(C)c2)NC(=O)[C@@H](Cc2ccc(F)cc2)NC(=O)[C@@H]2CCNC(=O)CC[C@H](NC1=O)C(=O)N[C@@H](Cc1c[nH]c3ccccc13)C(=O)N[C@@H](CCC(N)=O)C(=O)N2` [Compound 170, [4-Aminomethyl-phenylacetyl](1c)*IE(2c)WQ[Dab](2c)[{d}F(4-F)][F(3,4-Me)][2-Me-Val]E(1c)[Dab][2-Me-3-(3-Pyridyl)-Ala]-[NH2]] ([X1]IEWQ[Dab][dPhe(4-F)][Phe(3,4-Me2)][αMeV]E[Dab][αMeAla(3-pyridyl)]-NH2; lactam 3-6, N-10), the fraction remaining at 4 h, 10 μM in data set [2] (4 h) is 62%. Take `CC[C@H](C)[C@@H]1NC(=O)Cc2ccc(cc2)CNC(=O)CC[C@@H](C(=O)N[C@@H](CCN)C(=O)N[C@@](C)(Cc2cccnc2)C(N)=O)NC(=O)[C@](C)(C(C)C)NC(=O)[C@@H](Cc2c[nH]c3cc(F)ccc23)NC(=O)[C@H](Cc2ccc(C)cc2)NC(=O)[C@@H]2CCNC(=O)CC[C@H](NC1=O)C(=O)N[C@@H](Cc1c[nH]c3ccccc13)C(=O)N[C@@H](CCC(N)=O)C(=O)N2` [Compound 177, [4-Aminomethyl-phenylacetyl](1c)*IE(2c)WQ[Dab](2c)[F(4-Me)][{d}6-F-Trp][2-Me-Val]E(1c)[Dab][2-Me-3-(3-Pyridyl)-Ala]-[NH2]] ([X1]IEWQ[Dab][Phe(4-Me)][dTrp(6-F)][αMeV]E[Dab][αMeAla(3-pyridyl)]-NH2; lactam 3-6, N-10): the share remaining at 4 h, 10 μM in data set [2] (4 h) was 63%. For `CC[C@H](C)[C@@H]1NC(=O)Cc2ccc(cc2)CNC(=O)CC[C@@H](C(=O)N[C@@H](CCN)C(=O)N[C@@](C)(Cc2cccnc2)C(N)=O)NC(=O)[C@](C)(C(C)C)NC(=O)[C@H](Cc2cn(C)c3ccccc23)NC(=O)[C@H](Cc2ccc(C)cc2)NC(=O)[C@@H]2CCNC(=O)CC[C@H](NC1=O)C(=O)N[C@@H](Cc1c[nH]c3ccccc13)C(=O)N[C@@H](CCC(N)=O)C(=O)N2` [Compound 175, [4-Aminomethyl-phenylacetyl](1c)*IE(2c)WQ[Dab](2c)[F(4-Me)][1-Me-Trp][2-Me-Val]E(1c)[Dab][2-Me-3-(3-Pyridyl)-Ala]-[NH2]] ([X1]IEWQ[Dab][Phe(4-Me)][Trp(1-Me)][αMeV]E[Dab][αMeAla(3-pyridyl)]-NH2; lactam 3-6, N-10), the share remaining at 4 h, 10 μM in data set [2] (4 h) is 93%.

Consider `CC(=O)N[C@H]1CCCCNC(=O)CC[C@@H](C(=O)N[C@@H](CCCNC(=N)N)C(N)=O)NC(=O)[C@](C)(CC(C)C)NC(=O)[C@H](Cc2ccc3ccccc3c2)NC(=O)[C@H](Cc2ccc(OCCN)cc2)NC(=O)[C@@H]2CSCC(=O)CSC[C@H](NC(=O)[C@H](CO)NC1=O)C(=O)N[C@@H](Cc1c[nH]c3ccccc13)C(=O)N[C@@H](CCC(N)=O)C(=O)N2` [Compound 47, [Ac]-K(1c)SC(2a)WQC(2a)[Y(2-aminoethoxy)][2-Nal][2-Me-Leu]E(1c)R-[NH2]] (Ac-KSCWQC[AEF][2Nal][αMeL]ER-NH2; lactam 1-10; linker 3-6 via CH2COCH2), for which the fraction remaining at 1 h, 10 μM in data set [2] was 2%. In data set [2] (4 h), the fraction remaining at 4 h, 10 μM is 0%. As for `CC(C)C[C@]1(C)NC(=O)[C@H](Cc2ccc3ccccc3c2)NC(=O)[C@H](Cc2ccc(OCCN)cc2)NC(=O)[C@@H]2CSCC(=O)CSC[C@H](NC(=O)[C@H](CO)NC(=O)c3cccc(c3)CNC(=O)CC[C@@H](C(=O)N(C)[C@@H](CCCNC(=N)N)C(N)=O)NC1=O)C(=O)N[C@@H](Cc1c[nH]c3ccccc13)C(=O)N[C@@H](CCC(N)=O)C(=O)N2` [Compound 43, [(3-Aminomethyl)benzoyl](1c)*SC(2a)WQC(2a)[Y(2-aminoethoxy)][2-Nal][2-Me-Leu]E(1c)[N-Me-Arg]-[NH2]] ([3Amb]SCWQC[AEF][2Nal][αMeL]E[NMeR]-NH2; linker 3-6 via CH2COCH2; lactam N-10), in data set [2] (4 h), the amount remaining at 4 h, 10 μM is 33%.

The values above are taken from US20250154198A1, “PEPTIDE INHIBITORS OF INTERLEUKIN-23 RECEPTOR” (Zealand Pharma A/S, priority 2021, published 2025).
